According to US20210330744A1, “Methods and Compositions for Treating Neurodegeneration and Fibrosis” (Temple University-Of The Commonwealth System of Higher …, priority 2017, published 2021):

Legend:
Assay type in all cases: cell-based, mouse
[1] = system: MEFs; assay: α-SMA immunofluorescence (myofibroblast differentiation); settings: wildtype MEFs, 48 hours
Experimental: For experiments that required adenoviral gene transfer, MEFs were incubated in adenovirus for 24 hours at which time the media was changed. To knockout Mat, MEFs were transduced with adenovirus encoding Cre-recombinase (Ad-Cre) or βgalactosidase (Ad-(βgal) for 24 h and experiments were performed 5 days post-infection in order to ensure sufficient time for protein turnover. For experiments using adenovirus encoding Glyco-High, Glyco-Low, or mito-R-GECO1, cells were incubated for an additional 24 hours prior to the experiment. The following adenoviruses have previously been described: NFAT-cl-GFP, Glyco-High, Glyco-Low, mito-R-GECO1 (De Windt et al., 2000; Kurland et al., 1992; Salabei et al., 2016; Zhao et al., 2011). Glyco-High and Glyco-Low adenoviruses were made and purified by Vector Labs using cDNA for a rat liver PFKFB1 isoform of phosphofructokinase 2 (PFK2)/ fructose-2,6-bisphosphatase (FBP2). […]
MEFs were seeded on coated 35-mm dishes. […] Images were acquired in the red (590ex/617em) and blue (350ex/461em) channels. α-SMA expression was assessed by quantifying fluorescence intensity and the percentage α-SMA positive cells. More than 50 cells per dish were analyzed.

[2] = system: MICU1; assay: Western blot of mtCU components in WT MEFs; settings: 12 hours after treatment
Experimental: (§1) Myofibroblast differentiation was induced using 10 ng ml^−1 recombinant mouse Transforming growth factor-β (TGFβ) or 10 μM Angiotensin II (AngII,). In all experiments, FBS was reduced to 1% 24 hours prior to and during treatment with TGFβ or AngII.
(§2) All protein samples were lysed by homogenization in RIPA buffer supplemented with phosphatase inhibitors and protease inhibitors. Samples were sonicated briefly and centrifuged at 5,000 g for 10 minutes. The supernatant was collected and used for further analysis. Protein amount was quantified using the Bradford Protein Assay and equal amounts of protein (10-50 μg) were run by electrophoresis on polyacrylamide Tris-glycine SDS gels. Gels were transferred to PVDF and membranes were blocked for 1 hour in Blocking Buffer followed by incubation with primary antibody overnight at 4° C. Membranes were washed in TBS-T 3 times for 5 minutes each and then incubated with secondary antibody for 1 hour at room temperature. After incubation with fluorescent secondary antibodies, membranes were washed in TB S-T 3 times for 5 minutes each and then imaged on a Licor Odyssey system. The following antibodies were used in the study: MCU (1:1,000), MCUb (1:250,), MICU1 (1:500,), MCUR1 (1:500), EMRE (1:250, Santa Cruz, sc-86337), VDAC (1:1,000), PDHE1α phospho 5293 (1:1,000), PDHE1α (1:1,000,), IDH3A (1:500), α-tubulin (1:1,000), ETC respiratory chain complexes (1:2,500), H3K4me3 (1:2,000), H3K9me3 (1:2,000), H3K27me3 (1:2,000), H3K4me2 (1:2,000), H3K9me2 (1:2,000), H3K27me2 (1:2,000), H3 (1:2000); and secondary antibodies: anti-mouse (1:12,000), anti-rabbit, (1:12,000), and anti-goat (1:12,000).

[3] = system: MEFs; assay: ECAR and OCR measurements (Seahorse XF96) in MEFs
Experimental: as §1
A Seahorse Bioscience XF96 extracellular flux analyzer was employed to measure extracellular acidification rates (ECAR) and oxygen consumption rates (OCR). ECAR was measured using the Glycolytic Stress Test Kit and OCR was measured using the Miro Stress Test Kit. To evaluate ECAR, 20,000 MEFs/well were plated in XF media pH 7.4 without supplementation. […] To evaluate OCR, 20,000 MEFs/well were plated in XF media pH 7.4 supplemented with 10 mM glucose and 1 mM sodium pyruvate. […] After each experiment, protein concentration was measured and wells were normalized using the Wave software.

[4] = system: NFATc1; assay: NFAT translocation assay; settings: control cells (Ad-βgal), 24 hours
Experimental: MEFs were plated on coated 35-mm dishes and infected with Ad-NFATc1-GFP for 24 hours at which time live-cell images were taken followed by treatment with 10 ng m1^1 TGFP or 10 μM AngII for 24 hours. For live-cell imaging, cells were placed in a 37° C. heated chamber on a Carl Zeiss Axio Observer Z1 fluorescent microscope. Prior to imaging, MEFs were incubated with Hoechst 33342 to demarcate cell nuclei. Images were acquired in the green channel (490ex/525em) and blue channel (350ex/460em). NFAT localization was quantified as the nuclear/cytoplasmic ratio of GFP fluorescence. More than 50 cells per dish were analyzed.

[5] = system: PDH E1α; assay: Western blot of phosphorylated PDH; settings: MEFs, 0, 24, 48, or 72 h
Experimental: as §2

COC(=O)CCC(=O)C(=O)OC [DM-αKG, dimethyl-αKG]
percentage of α-SMA positive cells [1]: increased the percentage of α-SMA positive cells to the same extent as 48 hours of TGFβ treatment

Angiotensin II (DRVYIHPF; Angiotensin-2; UniProt P01019 25-32, looked up) [AngII, pro-fibrotic agonist]
MICU1 expression [2]: similarly large increase
basal respiration [3]: slight decrease
increase in glycolysis from baseline ([3]; at peak (TGFβ 48 hours, AngII ~12 hours)): 45%
nuclear translocation of NFATc1 [4]: induced nuclear translocation of NFATc1
ratio of p-PDH E1α/PDH [5]: increased
